{"source": "patent US7122533B2", "about": "“Cosalane compounds and methods for their use” (The United States of America as represented by the …, priority 1999, dated 2006)", "type_in_all_cases": "cell-based", "key": {"[1]": {"tested_on": "human monocytes (RANTES-induced migration)", "test": "RANTES-induced monocyte migration (micro-chemotaxis chamber)", "details": "for IC50: Homo sapiens, Monocyte, ≦ 5% standard error, NA = not active; for activity as inhibitors of RANTES-induced migration: discussion of Table 1", "experimental": "(§1) Human embryonic kidney cells 293 (HEK-293) transfected to express human CCR1, CCR3, or CCR5 receptors were cultured in Dulbecco's Modified Eagles Medium (DMEM, Biowhiftaker, Walkersville, Md.) containing 10% Fetal Bovine Serum (FBS, Hyclone, Logan, Utah), 2 mM glutamine and 100 U/ml penicillin and streptomycin (Quality Biologicals, Gaithersburg, Md.). Peripheral blood mononuclear cells were isolated from fresh normal donor apheresis packs by centrifugation over Ficoll. Monocytes were enriched by 85–95% using percoll fractionation (Pharmacia, Piscataway, N.J.).\n(§2) Monocyte chemotaxis was performed as previously described [Wang (1993) J. Immunol. 150:3022–3029]. Briefly, monocytes were resuspended in binding media (RPMI-1640 media containing 1% BSA, 25 mM HEPES, pH 8.0) at 1–2×10^6 cells/ml. Chemokines, diluted in binding media, were mixed with cosalane or the indicated cosalane analog and placed in the lower wells of a micro-chemotaxis chamber (Neuro Probe, Cabin John, Md.). Five micrometer polyvinyl-free polycarbonate membranes were placed over the chemokine mixtures. After the micro-chemotaxis chamber was assembled, 50 μl of cells were placed in the upper wells. The filled chemotaxis chambers were incubated in a humidified CO2 incubator for 90 minutes.\n(§3) After incubating, the membranes were removed from the chemotaxis chamber assembly followed by gently removing the cells from the upper side of the membrane. Then cells on the lower side of the membrane were stained.\n(§4) The number of cells migrating to the chemokine mixtures was determined for binding media alone, and chemokine treated and untreated cells. HEK-293 cells transfected to express human CCR1, CCR3 or CCR5 receptors were resuspended in binding media at 7.5×10^5 cells/ml. Ten μm polyvinyl-free polycarbonate membranes (Neuro Probe) were treated with 47 ug/ml rat tail collagen type 1 (Collaborative Biomedical Products, Bedford, Md.) in RPMI-1640 overnight, dried and placed over the chemoattractants. The assembled chemotaxis chambers were incubated in a humidified CO2 incubator for 5.5–6 hours. After the incubation, the membranes were removed from the chemotaxis chamber assembly followed by gently removing cells from the upper side of the membrane. The stained and dried membrane was mounted and the cells on the underside of the membrane were counted at 200× magnification. The results are reported as the average number of cells per high powered field at a given chemokine concentration±standard deviation."}, "human CCR1 [2]": {"molecular_target": "T1, human CCR1 (Homo sapiens, UniProt P32246)", "T1 construct": "expressed in transfected cells; host or cells: HEK-293", "T1 sequence (P32246 1-355)": "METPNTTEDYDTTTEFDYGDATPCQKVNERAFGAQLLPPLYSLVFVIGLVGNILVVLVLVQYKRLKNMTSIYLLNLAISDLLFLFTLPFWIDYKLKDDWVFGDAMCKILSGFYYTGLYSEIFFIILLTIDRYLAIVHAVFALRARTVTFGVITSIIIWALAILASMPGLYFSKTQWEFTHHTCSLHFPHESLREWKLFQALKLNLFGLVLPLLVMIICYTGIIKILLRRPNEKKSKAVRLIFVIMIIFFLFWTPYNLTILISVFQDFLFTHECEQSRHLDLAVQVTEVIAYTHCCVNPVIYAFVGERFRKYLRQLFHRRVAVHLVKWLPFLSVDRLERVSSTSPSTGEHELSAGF", "test": "RANTES-induced CCR1/HEK-293 transfectant migration", "experimental": "as §1, with “Ficoll.” for “Ficoll. Monocytes were enriched by 85–95% using percoll fractionation (Pharmacia, Piscataway, N.J.).”\nas §4, with “magnification.” for “magnification. The results are reported as the average number of cells per high powered field at a given chemokine concentration±standard deviation.”"}, "human CCR3": {"molecular_target": "T2, human CCR3 (Homo sapiens, UniProt P51677)", "T2 construct": "expressed in transfected cells; host or cells: HEK-293", "T2 sequence (P51677 1-355)": "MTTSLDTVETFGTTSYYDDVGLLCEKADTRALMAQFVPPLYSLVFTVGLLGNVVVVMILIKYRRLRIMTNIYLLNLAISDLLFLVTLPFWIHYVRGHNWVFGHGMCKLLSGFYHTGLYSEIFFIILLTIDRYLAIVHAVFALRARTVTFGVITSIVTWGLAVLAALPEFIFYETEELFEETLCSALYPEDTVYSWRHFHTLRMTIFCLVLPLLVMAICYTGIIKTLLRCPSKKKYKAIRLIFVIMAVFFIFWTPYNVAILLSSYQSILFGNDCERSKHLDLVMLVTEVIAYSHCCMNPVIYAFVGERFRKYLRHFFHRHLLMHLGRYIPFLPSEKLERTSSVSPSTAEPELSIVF", "test": "eotaxin-induced CCR3/HEK-293 cell migration", "details": "eotaxin-induced CCR3/HEK-293 migration, figures", "experimental": "as §1, §4"}, "human CCR1 [3]": {"molecular_target": "T1, human CCR1", "test": "MIP1α-induced migration of CCR1 transfectants", "details": "compound at 1 μM, data not shown", "experimental": "as §1, §4\n(§5) The ability of compound 3 to inhibit RANTES-induced migration of human embryonic kidney (HEK) cells transfected to express individual chemokine receptors was initially tested. Although the cosalane analog 3 (1 μM) had no effect on RANTES-induced migration of CCR5 transfectants, it inhibited 50% of RANTES-induced CCR1 transfectant migration (FIG. 2). In contrast, the MIP1α- and MIP1β-induced migration of CCR1 transfectants was not inhibited by compounds 1, 2 or 3 when tested at concentrations of 1 μM (data not shown)."}, "human CCR1 [4]": {"molecular_target": "T1, human CCR1", "test": "MIP1β-induced migration of CCR1 transfectants", "details": "compound at 1 μM, data not shown", "experimental": "as §1, §4, §5"}, "[5]": {"tested_on": "MCP-4/CCR2-mediated monocyte migration", "test": "MCP-4-induced human monocyte migration", "details": "FIG. 3", "experimental": "as §2, §3, §4\nAlthough MCP-4 is known to bind to CCR2 and CCR3, fresh primary human monocytes only express high levels of CCR2."}, "[6]": {"tested_on": "human monocytes (acetylated RANTES-induced migration)", "test": "monocyte migration induced by acetylated (modified) RANTES", "details": "acetylated RANTES 50–1000 ng/mL, FIG. 6", "experimental": "as §2, §3\nas §4, with “deviation. […]” for “deviation.”"}, "[7]": {"tested_on": "human monocytes (MIP1-α-induced migration)", "test": "MIP1-α-induced monocyte migration", "details": "compound at 1 μM, chemokine at 2.5 ng/ml, data not shown", "experimental": "as §2, with “Chemokines, diluted in binding media, were mixed with cosalane or the indicated cosalane analog and placed in the lower wells of a micro-chemotaxis chamber (Neuro Probe, Cabin John, Md.).” left out\nas §3\nas §4, with “magnification.” for “magnification. The results are reported as the average number of cells per high powered field at a given chemokine concentration±standard deviation.”\n(§6) It is noted that both MIP1-α and MIP1-β are ligands for CCR1, CCR5, and D6 (8)."}, "[8]": {"tested_on": "human monocytes (MIP1-β-induced migration)", "test": "MIP1-β-induced monocyte migration", "details": "compound at 1 μM, chemokine at 2.5 ng/ml, data not shown", "experimental": "as §2, with “Chemokines, diluted in binding media, were mixed with cosalane or the indicated cosalane analog and placed in the lower wells of a micro-chemotaxis chamber (Neuro Probe, Cabin John, Md.).” left out\nas §3\nas §4, with “magnification.” for “magnification. The results are reported as the average number of cells per high powered field at a given chemokine concentration±standard deviation.”\nas §6"}, "[9]": {"details": "≦ 5% standard error, NA = not active, read-out: IC50 (μM) RANTES-Induced CCRI/HEK Migration"}}, "note": "Where two headings read alike, the source gives them in different places.", "data": [{"smiles": "CC(C)CCCC(C)[C@H]1CCC2C3CCC4C[C@@H](CCC=C(c5cc(Cl)c(OCc6cccc(B(O)O)c6)c(C(=O)O)c5)c5cc(Cl)c(OCc6cccc(B(O)O)c6)c(C(=O)O)c5)CC[C@]4(C)C3CC[C@@]21C", "note": "(stereo partly drawn) [Compound 9]", "values": [{"measurement": "IC50", "setting": "[1]", "result": 2.2, "unit": "µM"}, {"measurement": "IC50", "setting": "human CCR1 [2]; [9]", "result": 4, "unit": "µM"}, {"measurement": "inhibition of CCL11 (eotaxin) interaction with CCR3", "setting": "human CCR3", "result": "inhibit"}]}, {"smiles": "CC(C)CCC[C@@H](C)[C@H]1CC[C@H]2[C@@H]3CC[C@H]4C[C@@H](CCC=C(c5cc(Cl)c(O)c(C(=O)O)c5)c5cc(Cl)c(O)c(C(=O)O)c5)CC[C@]4(C)[C@H]3CC[C@]12C", "note": "[Compound 1, cosalane]", "values": [{"measurement": "IC50", "setting": "[1]", "result": 0.76, "unit": "µM"}, {"measurement": "IC50", "setting": "human CCR1 [2]; [9]", "result": 0.26, "unit": "µM"}, {"measurement": "inhibition of MIP1α-induced migration of CCR1 transfectants", "setting": "human CCR1 [3]", "result": "not inhibited"}, {"measurement": "inhibition of MIP1β-induced migration of CCR1 transfectants", "setting": "human CCR1 [4]", "result": "not inhibited"}, {"measurement": "block of MCP-4/CCR2-mediated monocyte migration", "setting": "[5]", "result": "block"}, {"measurement": "inhibition of CCL11 (eotaxin) interaction with CCR3", "setting": "human CCR3", "result": "inhibit"}, {"measurement": "inhibition of the activity of modified (acetylated) RANTES to attract monocytes", "setting": "[6]; 30 μM compound", "result": "not inhibited"}]}, {"smiles": "CC(C)CCCC(C)[C@H]1CCC2C3CCC4C[C@@H](CCC=C(c5cc(Cl)c(OCc6cccc([N+](=O)[O-])c6)c(C(=O)O)c5)c5cc(Cl)c(OCc6cccc([N+](=O)[O-])c6)c(C(=O)O)c5)CC[C@]4(C)C3CC[C@@]21C", "note": "(stereo partly drawn) [Compound 7]", "values": [{"measurement": "IC50", "setting": "[1]", "result": 3.5, "unit": "µM"}, {"measurement": "activity as inhibitors of RANTES-induced migration", "setting": "[1]", "result": "retain activity"}, {"measurement": "IC50", "setting": "human CCR1 [2]", "result": 5.7, "unit": "µM"}]}, {"smiles": "CSCC[C@H](NC(=O)c1cc(C(=CCC[C@H]2CC[C@@]3(C)C(CCC4C3CC[C@@]3(C)C4CC[C@@H]3C(C)CCCC(C)C)C2)c2cc(Cl)c(O)c(C(=O)N[C@@H](CCSC)C(=O)O)c2)cc(Cl)c1O)C(=O)O", "note": "(stereo partly drawn) [Compound 15]", "values": [{"measurement": "IC50", "setting": "[1]", "result": 0.82, "unit": "µM"}, {"measurement": "activity as inhibitors of RANTES-induced migration", "setting": "[1]", "result": "retained activity"}]}, {"smiles": "CC(C)CCCC(C)[C@H]1CCC2C3CCC4C[C@@H](CCC=C(c5cc(Cl)c(OCc6cccc(C(=O)O)c6)c(C(=O)O)c5)c5cc(Cl)c(OCc6cccc(C(=O)O)c6)c(C(=O)O)c5)CC[C@]4(C)C3CC[C@@]21C", "note": "(stereo partly drawn) [Compound 2]", "values": [{"measurement": "IC50", "setting": "[1]", "result": 10, "unit": "µM"}, {"measurement": "activity as inhibitors of RANTES-induced migration", "setting": "[1]", "result": "retain activity"}, {"measurement": "IC50", "setting": "human CCR1 [2]; [9]", "result": 10, "unit": "µM"}, {"measurement": "inhibition of MIP1-α-induced monocyte migration", "setting": "[7]", "result": "not reduced"}, {"measurement": "inhibition of MIP1-β-induced monocyte migration", "setting": "[8]", "result": "very weak inhibitor"}, {"measurement": "reduction in cell numbers, MIP1-β-induced monocyte migration", "setting": "[8]", "result": "less than 10%"}, {"measurement": "inhibition of MIP1α-induced migration of CCR1 transfectants", "setting": "human CCR1 [3]", "result": "not inhibited"}, {"measurement": "inhibition of MIP1β-induced migration of CCR1 transfectants", "setting": "human CCR1 [4]", "result": "not inhibited"}, {"measurement": "block of MCP-4/CCR2-mediated monocyte migration", "setting": "[5]", "result": "block"}, {"measurement": "inhibition of CCL11 (eotaxin) interaction with CCR3", "setting": "human CCR3", "result": "inhibit"}]}, {"smiles": "CC(C)CCCC(C)[C@H]1CCC2C3CCC4C[C@@H](CCC=C(c5cc(Cl)c(OCc6ccc(-c7cccc(C(=O)O)c7)cc6)c(C(=O)O)c5)c5cc(Cl)c(OCc6ccc(-c7cccc(C(=O)O)c7)cc6)c(C(=O)O)c5)CC[C@]4(C)C3CC[C@@]21C", "note": "(stereo partly drawn) [Compound 6]", "values": [{"measurement": "IC50", "setting": "[1]", "result": 3, "unit": "µM"}, {"measurement": "activity as inhibitors of RANTES-induced migration", "setting": "[1]", "result": "retain activity"}, {"measurement": "IC50", "setting": "human CCR1 [2]; [9]", "result": 9.1, "unit": "µM"}]}, {"smiles": "CC(C)CCCC(C)C1CCC2C3CCC4CC(CCC=C(c5cc(Cl)c(OCc6ccc(C(=O)O)cc6)c(C(=O)O)c5)c5cc(Cl)c(OCc6ccc(C(=O)O)cc6)c(C(=O)O)c5)CCC4(C)C3CCC12C", "note": "(stereo not drawn) [Compound 5]", "values": [{"measurement": "activity as inhibitors of RANTES-induced migration", "setting": "[1]", "result": "inactive"}, {"measurement": "inhibition of MIP1-α-induced monocyte migration", "setting": "[7]", "result": "neither MiP1-α- nor MIP1-β-induced monocyte migration was inhibited"}, {"measurement": "inhibition of MIP1-β-induced monocyte migration", "setting": "[8]", "result": "neither MiP1-α- nor MIP1-β-induced monocyte migration was inhibited"}, {"measurement": "inhibition of the activity of modified (acetylated) RANTES to attract monocytes", "setting": "[6]; 10 μM compound", "result": "no statistical difference"}]}, {"smiles": "CC(C)CCCC(C)[C@H]1CCC2C3CCC4C[C@@H](CCC=C(c5cc(Cl)c(O)c(C(=O)NCC(=O)O)c5)c5cc(Cl)c(O)c(C(=O)NCC(=O)O)c5)CC[C@]4(C)C3CC[C@@]21C", "note": "(stereo partly drawn) [Compound 12]", "values": [{"measurement": "IC50", "setting": "human CCR1 [2]", "result": 10, "unit": "µM"}]}]}
